Test results taken from patent publication US5916774A, “D-aminoacylase” (Daicel Chemical Industries, Ltd., priority 1997, dated 1999).
Read-outs that look alike come from different tables or passages of the source.

Columns and labels:
[1] = system: Amycolatopsis orientalis IFO 12806; assay: Induction of D-aminoacylase production by inducers in culture; format: cell-based
Method: This microbial strain was cultured in ISP-2 liquid medium as used in Example 1 supplemented with or without N-acetyl-DL-methionine or DL-valine (Kanto Kagaku) (0.1% each) as the enzyme inducer with shaking at 160 rpm at 30° C. for 72 h.
After the incubation, the culture was centrifuged at 8000 rpm (7000×g) for 20 min with a Hitachi Koki refrigerated centrifuge to collect microbial cells. The cells were washed with 50 mM Tris-HCl buffer (pH 7.5) and then centrifuged again with the same centrifuge to harvest the cells to be used in the following processes. The cells were stored at -20° C.
The stored cells were suspended in 20 ml of 50 mM Tris-HCl (pH 7.5), ultrasonicated at 190 W for 10 min, and centrifuged with a Hitachi Koki refrigerated centrifuge at 14,000 rpm (20,000×g) for 20 min. The supernatant thus obtained was used as the crude enzyme solution.
The enzymatic reaction was performed in a total volume of 1.0 ml of a reaction system containing 20 mM N-acetyl-D-methionine, 50 mM Tris-HCl buffer (pH 7.5), 1 mM CoCl2, and 100 μl of the enzyme solution at 30° C. for 10 min. The reaction was terminated by adding a TCA reaction terminating solution.

[2] = system: D-aminoacylase derived from Amycolatopsis orientalis IFO 12806; assay: Influences of various metallic salts and reagents on D-aminoacylase activity; format: biochemical
Method: (§1) The enzyme activity was assayed according to TNBS method [Tokuyama, S., Hatano, K. and Takahashi, T., Biosci. Biotech. Biochem. 58, pp24 (1994)]. That is, a sample solution containing amino acid was added to 0.5 ml of the solution (C) (0.1M Na2 B4 O7), and brought up to a volume of 1.0 ml. To this mixture was added […] of 0.11M TNBS solution, and the resulting mixture was quickly mixed. Five min thereafter, absorption at 420 nm was measured.
In Table 5, the term "PCMB" means p-chloromercuribenzoic acid.

[3] = system: D-aminoacylase derived from Amycolatopsis orientalis IFO 12806; assay: Substrate specificity of D-aminoacylase; format: biochemical; details: 20 mM substrate, 3 h; for Action of the enzyme on the substrate: pH 7.5, 30° C.; for Specific activity (%): N-acetyl-D-methionine taken as 100%, 50 mM Tris-HCl pH 7.5, 30° C.
Method: The enzymatic reaction was carried out in a total volume of 1.0 ml of a reaction system containing 20 mM N-acetyl-D-methionine (Sigma), 50 mM Tris-HCl buffer (pH 7.5), 1 mM CoCl2, and 100 μl of the enzyme solution at 30° C. for 60 min. The reaction was terminated by adding 0.5 ml of a TCA reaction terminating solution according to Tsai et al. (containing 0.11M trichloroacetic acid, 0.22M sodium acetate, and 0.33M acetic acid).
as §1
Substrate specificity of this enzyme was compared to, taking substrate specificity for N-acetyl-D-methionine as 100%, N-acetyl-D-valine, N-acetyl-D-phenylalanine, N-acetyl-D-leucine, N-acetyl-D-tryptophan, N-acetyl-D-asparagine, N-acetyl-L-methionine, N-acetyl-D-leucine, and N-acetyl-L-valine. The enzyme activity was assayed in 50 mM Tris-HCl buffer (pH 7.5) containing 100 μl of the enzyme solution and 20 mM of each substrate (total volume of 1.0 ml) at 30° C. for 3 h.

[4] = crude enzyme solution of cells cultured with 0.1% inducer in ISP-2 medium, 30° C., 72 h
[5] = metallic salt 1 mM, pH 7.5, 30° C., 60 min, no addition 0.25
[6] = metallic salt 10 mM, no addition = 100
[7] = metallic salt 10 mM, pH 7.5, 30° C., 60 min, no addition 0.25
[8] = metallic salt 1 mM, no addition = 100
[9] = reagent 1 mM, no addition = 100
[10] = reagent 1 mM, pH 7.5, 30° C., 60 min, no addition 0.22
[11] = reagent 10 mM, no addition = 100
[12] = reagent 10 mM, pH 7.5, 30° C., 60 min, no addition 0.22

CC(C)C(N)C(=O)O (racemic) [DL-valine]
Induction of D-aminoacylase ([1]; DL-valine compared with N-acetyl-DL-methionine as inducer): induced more strongly
Specific activity [1, 4]: 144.0 mU/mg
Total activity [1, 4]: 36.0 U
Activity ([1]; crude enzyme solution of cells cultured with 0.1% inducer in ISP-2 medium, 30° C., 72 h, 20 mM N-acetyl-D-methionine, pH 7.5, 10 min): 3.9 U/ml

[Ba+2].[Cl-].[Cl-] [Ba^2+ (BaCl2), BaCl2]
Methionine produced, concentration 1 mM [2, 5]: 0.19 mM
Specific activity (%), concentration 10 mM [2, 6]: 176%
Methionine produced, concentration 10 mM [2, 7]: 0.44 mM

[Ca+2].[Cl-].[Cl-] [Ca^2+ (CaCl2), CaCl2]
Effect on enzyme activity ([2]; 1 mM): significantly promoted
Effect on enzyme activity ([2]; 10 mM): did not inhibit
Specific activity (%), concentration 1 mM [2, 8]: 180%
Methionine produced, concentration 1 mM [2, 5]: 0.45 mM
Specific activity (%), concentration 10 mM [2, 6]: 208%
Methionine produced, concentration 10 mM [2, 7]: 0.52 mM

[Cl-].[Cl-].[Co+2] [Co^2+ (CoCl2), CoCl2]
Effect on enzyme activity ([2]; 1 mM): significantly promoted
Effect on enzyme activity ([2]; 10 mM): did not do so
Specific activity (%), concentration 1 mM [2, 8]: 208%
Methionine produced, concentration 1 mM [2, 5]: 0.52 mM
Specific activity (%), concentration 10 mM [2, 6]: 108%
Methionine produced, concentration 10 mM [2, 7]: 0.27 mM

[Cl][Cu][Cl] [Cu^2+ (CuCl2), CuCl2]
Effect on enzyme activity ([2]; concentration not given): inhibited
Specific activity (%), concentration 1 mM [2, 8]: 0%
Methionine produced, concentration 1 mM [2, 5]: 0 mM
Specific activity (%), concentration 10 mM [2, 6]: 0%
Methionine produced, concentration 10 mM [2, 7]: 0 mM

O=C(O)CN(CCN(CC(=O)O)CC(=O)O)CC(=O)O [EDTA.2Na, reference compound]
Effect on enzyme activity [2]: inhibited
Specific activity (%), concentration 1 mM [2]: 0%
Specific activity (%), concentration 10 mM [2]: 0%
Methionine produced, concentration 1 mM ([2]; pH 7.5): 0 mM
Methionine produced, concentration 10 mM ([2]; pH 7.5): 0 mM

[Cl][Fe][Cl] [F^e2+ (FeCl2), FeCl2]
Specific activity (%), concentration 1 mM [2, 8]: 52%
Methionine produced, concentration 1 mM [2, 5]: 0.13 mM
Specific activity (%), concentration 10 mM [2, 6]: 0%
Methionine produced, concentration 10 mM [2, 7]: 0 mM

[Cl][Hg][Cl] [Hg^2+ (HgCl2), HgCl2]
Effect on enzyme activity ([2]; concentration not given): inhibited
Specific activity (%), concentration 1 mM [2, 8]: 0%
Methionine produced, concentration 1 mM [2, 5]: 0 mM
Specific activity (%), concentration 10 mM [2, 6]: 0%
Methionine produced, concentration 10 mM [2, 7]: 0 mM

[Cl-].[K+] [K^+ (KCl), KCl]
Specific activity (%), concentration 1 mM [2, 8]: 52%
Methionine produced, concentration 1 mM [2, 5]: 0.13 mM
Specific activity (%), concentration 10 mM [2, 6]: 84%
Methionine produced, concentration 10 mM [2, 7]: 0.21 mM

[Cl-].[Cl-].[Mg+2] [Mg^2+ (MgCl2), MgCl2]
Specific activity (%), concentration 1 mM [2, 8]: 128%
Methionine produced, concentration 1 mM [2, 5]: 0.32 mM
Specific activity (%), concentration 10 mM [2, 6]: 92%
Methionine produced, concentration 10 mM [2, 7]: 0.32 mM

[Cl][Mn][Cl] [Mn^2+ (MnCl2), MnCl2]
Specific activity (%), concentration 1 mM [2, 8]: 96%
Methionine produced, concentration 1 mM [2, 5]: 0.24 mM
Specific activity (%), concentration 10 mM [2, 6]: 0%
Methionine produced, concentration 10 mM [2, 7]: 0 mM

CC(=O)N[C@H](C)C(=O)O [N-acetyl-D-alanine]
Action of the enzyme on the substrate [3]: acted somewhat
Specific activity (%) [3]: 16%

CC(=O)N[C@H](CC(N)=O)C(=O)O [N-acetyl-D-asparagine]
Action of the enzyme on the substrate [3]: acted somewhat
Specific activity (%) [3]: 19%

CC(=O)N[C@H](CC(C)C)C(=O)O [N-acetyl-D-leucine]
Action of the enzyme on the substrate [3]: acted well
Specific activity (%) [3]: 78%

CSCC[C@@H](NC(C)=O)C(=O)O [N-acetyl-D-methionine]
Action of the enzyme on the substrate [3]: acted well
Specific activity (%) [3]: 100%

CC(=O)N[C@H](Cc1ccccc1)C(=O)O [N-acetyl-D-phenylalanine]
Action of the enzyme on the substrate [3]: acted somewhat
Specific activity (%) [3]: 36%

CC(=O)N[C@H](Cc1c[nH]c2ccccc12)C(=O)O [N-acetyl-D-tryptophan]
Action of the enzyme on the substrate [3]: acted somewhat
Specific activity (%) [3]: 54%

CC(=O)N[C@@H](C(=O)O)C(C)C [N-acetyl-D-valine]
Specific activity (%) [3]: 33%

CC(=O)N[C@@H](CC(C)C)C(=O)O [N-acetyl-L-leucine]
Action of the enzyme on the substrate [3]: did not act
Specific activity (%) [3]: 0%

CSCC[C@H](NC(C)=O)C(=O)O [N-acetyl-L-methionine]
Action of the enzyme on the substrate [3]: did not act
Specific activity (%) [3]: 0%

CC(=O)N[C@H](C(=O)O)C(C)C [N-acetyl-L-valine]
Action of the enzyme on the substrate [3]: did not act
Specific activity (%) [3]: 0%

CCN1C(=O)C=CC1=O [N-ethyl-maleimide, reference compound]
Specific activity (%), concentration 1 mM [2, 9]: 45%
Methionine produced, concentration 1 mM [2, 10]: 0.1 mM
Specific activity (%), concentration 10 mM [2, 11]: 0%
Methionine produced, concentration 10 mM [2, 12]: 0 mM

[Cl-].[Na+] [Na^+ (NaCl), NaCl]
Specific activity (%), concentration 1 mM [2]: 84%
Specific activity (%), concentration 10 mM [2]: 152%
Methionine produced, concentration 1 mM ([2]; pH 7.5): 0.21 mM
Methionine produced, concentration 10 mM ([2]; pH 7.5): 0.36 mM

[Cl][Ni][Cl] [Ni^2+ (NiCl2), NiCl2]
Specific activity (%), concentration 1 mM [2, 8]: 48%
Methionine produced, concentration 1 mM [2, 5]: 0.12 mM
Specific activity (%), concentration 10 mM [2, 6]: 68%
Methionine produced, concentration 10 mM [2, 7]: 0.17 mM

O=C(O)c1cc[c]([Hg][Cl])cc1 [PCMB, p-chloromercuribenzoic acid, reference compound]
Effect on enzyme activity ([2]; concentration not given): inhibited
Specific activity (%), concentration 1 mM [2, 9]: 0%
Methionine produced, concentration 1 mM [2, 10]: 0 mM
Specific activity (%), concentration 10 mM [2, 11]: 0%
Methionine produced, concentration 10 mM [2, 12]: 0 mM

[Cl-].[Cl-].[Zn+2] [Zn^2+ (ZnCl2), ZnCl2]
Specific activity (%), concentration 1 mM [2, 8]: 0%
Methionine produced, concentration 1 mM [2, 5]: 0 mM
Specific activity (%), concentration 10 mM [2, 6]: 0%
Methionine produced, concentration 10 mM [2, 7]: 0 mM

OC(CS)C(O)CS (stereo not drawn) [dothiothreito, reference compound]
Specific activity (%), concentration 1 mM [2, 9]: 77%
Methionine produced, concentration 1 mM [2, 10]: 0.17 mM
Specific activity (%), concentration 10 mM [2, 11]: 68%
Methionine produced, concentration 10 mM [2, 12]: 0.15 mM

O=C(O)CI [iodoactate, iodoacetate, reference compound]
Effect on enzyme activity [2]: inhibited
Specific activity (%), concentration 1 mM [2]: 64%
Specific activity (%), concentration 10 mM [2]: 50%
Methionine produced, concentration 1 mM ([2]; pH 7.5): 0.14 mM
Methionine produced, concentration 10 mM ([2]; pH 7.5): 0.11 mM
